Reference: PMC9081329, “Pharmacokinetics, Mass Balance, Excretion, and Tissue Distribution of Plasmalogen Precursor PPI-1011” (Frontiers in Cell and Developmental Biology, 2022)
“And” between values parts separate entries of the source, which are not always exact repeats. Identical values can stand only once.

Assay: Mass balance and excretion study, single oral dose 100 mg/kg
Assay type: in vivo, Sprague-Dawley rats
Protocol: Four male rats were administered a single oral dose of [^14C]PPI-1011 at 100 mg/kg (200 μCi/kg). Feces, urine, and the cage rinse samples were collected at pre-determined times up to 168 h post-dose (HPD). The expired air was collected using a carbon dioxide trapping apparatus equipped with airflow apparatus. Expired [^14C]CO2 was collected for two of the four dosed animals for 24 h after the dose in a solution of ethanolamine:2-methoxyethanol (1:3, v/v) in two traps. Rats were sacrificed by overdose of CO2 and each cage was rinsed with 25% ethanol in water (>50 ml) at the end of the study. The cage rinse sample and the expired [^14C]CO2 was stored at 4°C.
Diluted dose solutions, plasma, urine, and cage rinse were analyzed in duplicate by LSC, as described above. The expired CO2 was analyzed the same day it was collected by mixing a 1 ml aliquot of the carbon dioxide absorbents with 5 ml of Hionic-Fluor for radioactivity concentrations with LSC. Feces samples were homogenized in 5-fold volume of purified water then duplicate fecal homogenate aliquots were transferred to Combusto Cones and combusted with a Sample Oxidizer (Model A307, Perkin Elmer) equipped with an Oximate 80 Robotic Automatic Samples. The [^14C]CO2 generated by the combustion was also collected in Carbo Sorb E and radioactivity was determined with PermaFluor as the scintillant using a Tri-Carb LSC.

## CC/C=C\C/C=C\C/C=C\C/C=C\C/C=C\C/C=C\CCC(=O)O[C@H](CO[14CH2]CCCCCCCCCCCCCCC)COC(=O)CCCCC1CCSS1 (some centres unmarked) [[^14C]PPI-1011]
168 h collection period, single oral 100 mg/kg
  Dose recovered in feces: 42.51 ± 7.16%
Between 24 and 48 h
  Total dose excreted in urine and feces: approximately 6%
Between 48 and 168 h
  Additional excretion in urine and feces: < 3%
Single oral 100 mg/kg
  Compound-associated radioactivity absorbed by the body: over 50%
Up to day seven, single oral 100 mg/kg, 100 mg/kg
  Dose found in urine: 2.40 ± 0.59% and < 2.5%
Within 168 h collection period, single oral 100 mg/kg
  Dosed radioactivity recovered in urine and feces including cage rinses: 45.10 ± 7.34%
Within the first 24 h
  Compound-associated radioactivity excreted in the feces: approximately 40%
  Compound-associated radioactivity excreted in the urine: ~2.5%
